# Several values for one entry are separate records, joined by “and”; a condition that tells them apart may be missing. Identical values can stand only once.
# Test system: Tumorart PS 2684
# Set-up: species or system Mäusen
# Details: in vivo
row,SMILES,T/C-Wert
1,"O=P1(N(CC2CO2)CC2CO2)OCCCN1CC1CO1 (centres unmarked) [Beispiel 1, 2H-1,3,2-Oxazaphosphorin, 2-(bis-glycidyl)aminotetrahydro-2-oxid-3-glycidyl-]",158 and 132
2,"CN(CC1CO1)P1(=O)OCCCN1CC(Cl)CO (centres unmarked) [Beispiel 2, 2H-1,3,2-Oxazaphosphorin, 2-(glycidyl-methyl)amino-2-oxid-3-(3-hydroxy-2-chloro)-propyl- . tetrahvdro -]",158 and 134

# Source: patent publication EP0072987A1 (priority 1981, dated 1983)
